Target: T1, recombinant ASK1 (Homo sapiens, UniProt Q99683)
T1 construct: purchased Carna Biosciences
Experiment: ASK1 Biochemical Assay (HTRF KinEASE-STK S3)
Conditions: ATP 100 μM; read-out: Biochemical Assay IC50
Method: ASK1 biochemical assay was standardized using recombinant ASK1 (Carna Biosciences), substrate and detection reagents from Cisbio HRTF KinEASE-STK S3 kit. Enzyme concentration, ATP, biotinylated STK substrate and STK antibodies were titrated for enzyme assay. Assay was carried out in ASK1 kinase buffer, 10 mM MOPS pH-7, 10 mM Mg-acetate, 1 mM DTT, 0.025% NP40, 1.5% glycerol and 0.05% BSA. DMSO was used as vehicle control with a final concentration of 1%. A 5 ng of ASK1 enzyme was incubated with compound for 1 hour at 23° C. on a shaker at 100rpm. ATP and biotin substrate was added at a final concentration of 100 μM and 1 μM and incubated for 3 hours at 23° C. on a shaker at 100rpm. […] Delta F ratios were calculated from data obtained at excitation (337 nm) and emission wavelengths (665 nm and 620-10 nm). Substrate blank values was considered as negative control. Values from negative control was substrated from vehicle control and compound treated wells. Enzyme inhibition by compounds were calculated from vehicle controls, which represent uninterrupted enzyme's activity.

T1 sequence (Q99683 654-971 limits assumed): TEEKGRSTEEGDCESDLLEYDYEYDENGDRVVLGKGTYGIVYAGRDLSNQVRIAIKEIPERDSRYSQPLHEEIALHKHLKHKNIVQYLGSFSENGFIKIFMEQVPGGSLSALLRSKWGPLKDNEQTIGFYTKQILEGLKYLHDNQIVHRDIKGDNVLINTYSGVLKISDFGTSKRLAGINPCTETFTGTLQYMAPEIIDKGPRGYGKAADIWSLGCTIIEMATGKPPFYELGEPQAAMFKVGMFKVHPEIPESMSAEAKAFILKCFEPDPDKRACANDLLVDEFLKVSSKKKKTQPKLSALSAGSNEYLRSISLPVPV

| IC50 [nM] | SMILES |
| --- | --- |
| < 100 | CC(C)n1cnnc1-c1cccc(N2CCN(c3ccc(N4CCC(C)(C)CC4)cc3)C2=O)n1 [Example 1070, 1-(6-(4-isopropyl-4H-1,2,4-triazol-3-yl)pyridin-2-yl)-3-(4-(4,4-dimethylpiperidin-1-yl)phenyl)imidazolidin-2-one] |
| < 100 | CC(C)n1cnnc1-c1cccc(N2CCN(c3ccc(N4CCC(N(C)C)CC4)nc3)C2=O)n1 [Example 1121, 1-(6-(4-(dimethylamino)piperidin-1-yl)pyridin-3-yl)-3-(6-(4-isopropyl-4H-1,2,4-triazol-3-yl)pyridin-2-yl)imidazolidin-2-one] |
| < 1000 | CC(C)n1cnnc1-c1cccc(N2CCN(c3cccc(-n4cnc(C5CC5)c4)c3)C2=O)n1 [Example 1005, 1-(3-(4-cyclopropyl-1H-imidazol-1-yl)phenyl)-3-(6-(4-isopropyl-4H-1,2,4-triazol-3-yl)pyridin-2-yl)imidazolidin-2-one] |
| > 1000 | CC(C)n1cnnc1-c1cccc(N2CCN(S(C)(=O)=O)C2=O)n1 [Example 1028, 1-(6-(4-isopropyl-4H-1,2,4-triazol-3-yl)pyridin-2-yl)-3-(methylsulfonyl)imidazolidin-2-one] |
| < 50 | CNC(=O)C1CCN(c2ccc(N3CCN(c4cccc(-c5nncn5C(C)C)n4)C3=O)cn2)C1 (stereo not shown) [Example 1119, 1-(5-(3-(6-(4-isopropyl-4H-1,2,4-triazol-3-yl)pyridin-2-yl)-2-oxoimidazolidin-1-yl)pyridin-2-yl)-N-methylpyrrolidine-3-carboxamide] |
| < 1000 | CC(C)n1cnnc1-c1cccc(-n2ccn(-c3cccc(-n4ccnc4)c3)c2=O)n1 [Example 1006, 1-(3-(1H-imidazol-1-yl)phenyl)-3-(6-(4-isopropyl-4H-1,2,4-triazol-3-yl)pyridin-2-yl)-1H-imidazol-2(3H)-one] |
| 95 | CC(C)n1cnnc1-c1cccc(N2CCN(c3cccc(S(C)(=O)=O)c3)C2=O)n1 [Example 1009, 1-(6-(4-isopropyl-4H-1,2,4-triazol-3-yl)pyridin-2-yl)-3-(3-(methylsulfonyl)phenyl)imidazolidin-2-one] |
| > 1000 | CC(C)n1cnnc1-c1cccc(N2CCN(c3ccnc(N4CCOCC4)c3)C2=O)n1 [Example 1132, 1-(6-(4-isopropyl-4H-1,2,4-triazol-3-yl)pyridin-2-yl)-3-(2-morpholinopyridin-4-yl)imidazolidin-2-one] |
| 1300 | CC(C)n1cnnc1-c1cccc(N2CCN(c3cc(-n4ccnc4)ncn3)C2=O)n1 [Example 1001, 1-(6-(1H-imidazol-1-yl)pyrimidin-4-yl)-3-(6-(4-isopropyl-4H-1,2,4-triazol-3-yl)pyridin-2-yl)imidazolidin-2-one] |
| > 1000 | CC(C)n1cnnc1-c1cccc(N2CCN(c3cccc(-c4ccc(C(N)=O)cc4)c3)C2=O)n1 [Example 1015, 3′-(3-(6-(4-isopropyl-4H-1,2,4-triazol-3-yl)pyridin-2-yl)-2-oxoimidazolidin-1-yl)-[1,1′-biphenyl]-4-carboxamide] |
| < 100 | CC(C)n1cnnc1-c1cccc(N2CCN(c3ccc(F)c(C4CC4)c3)C2=O)n1 [Example 1060, 1-(3-cyclopropyl-4-fluorophenyl)-3-(6-(4-isopropyl-4H-1,2,4-triazol-3-yl)pyridin-2-yl)imidazolidin-2-one] |
| < 100 | CC(C)n1cnnc1-c1cccc(N2CCN(c3ccc(N4CC(O)(C(C)C)C4)cc3)C2=O)n1 [Example 1089, 1-(4-(3-hydroxy-3-isopropylazetidin-1-yl)phenyl)-3-(6-(4-isopropyl-4H-1,2,4-triazol-3-yl)pyridin-2-yl)imidazolidin-2-one] |
| > 1000 | CC(C)c1cc(N2CCN(c3cccc(-c4nncn4C(C)C)n3)C2=O)ccc1S(C)(=O)=O [Example 1062, 1-(3-isopropyl-4-(methylsulfonyl)phenyl)-3-(6-(4-isopropyl-4H-1,2,4-triazol-3-yl)pyridin-2-yl)imidazolidin-2-one] |
